From PubChem BioAssay AID1845200 (Molecular Pharmacology Branch, DTP, NCI, 2023) come the findings set out here.

In general, IC50 refers to the concentration at which inhibition is half-maximal. A word on the viability, T/C: it is the result in the treated group divided by that in the control group, in per cent.

The test system of the experiment is ASPS-1 complex tumor spheroids, viability. The experiment can be described thus: Anticancer human tumor ASPS-1 cell line growth inhibition.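 As to all read-outs here: spheroids exposed to agents for 7 days after 3 days of growth.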 To be noted: for viability, T/C: stronger effect = lower value. In outline: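 Single agents and combinations were tested on spheroids built from tumor cells plus HUVEC and hMSC, at half-log dilutions starting at or near clinical Cmax, else 10 microM; final DMSO 0.25% (v/v).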

Setting [1] is: curve of first compound, second compound 1 µM.
[2] abbreviates: curve of first compound, second compound 3.16 µM.
Where [3] appears, read: curve of first compound, second compound 10 µM.
[4] abbreviates: curve of first compound, second compound 31.6 µM.
[5] abbreviates: curve of first compound, second compound 100 µM.

Structures are written as SMILES. Several values for one entry are separate records, joined by “and”; a condition that tells them apart may be missing. Identical values can stand only once. Activity calls are given as the source filed them. The calls were made as follows: active = viability on the fitted dose curve at most 10% of control; inactive = the rest.

`CC(C)n1c(=O)n(C)c2cnc3cc(F)c(-c4ccc(OCCCN5CCCCC5)nc4)cc3c21` + Cn1nnc2c(C(N)=O)ncn2c1=O: the IC50 is, setting by setting: under setting [1], 8.4 µM; under setting [2], 8.14 µM; under setting [3], 2.56 µM; under setting [4], 1.58 µM; under setting [5], 0.386 µM. Besides, the viability, T/C is, setting by setting: (second compound 1 µM, first compound 0.0316 µM) 106%; (second compound 1 µM, first compound 0.1 µM) 104%; (second compound 1 µM, first compound 0.316 µM) 102%; (second compound 1 µM, first compound 1 µM) 102%; (second compound 1 µM, first compound 3.16 µM) 93.4%; (second compound 1 µM, first compound 10 µM) 42.1%. Further, the viability, T/C (second compound 3.16 µM, first compound 0.0316 µM) is 102%; the viability, T/C (second compound 3.16 µM, first compound 0.1 µM) was 102%; the viability, T/C (second compound 3.16 µM, first compound 0.316 µM) was 103%; the viability, T/C (second compound 3.16 µM, first compound 1 µM) was 88.7%; the viability, T/C (second compound 3.16 µM, first compound 3.16 µM) is 82.4%; the viability, T/C (second compound 3.16 µM, first compound 10 µM) was 43%. Moreover, the viability, T/C is, setting by setting: (second compound 10 µM, first compound 0.0316 µM) 91.4%; (second compound 10 µM, first compound 0.1 µM) 79.8%; (second compound 10 µM, first compound 0.316 µM) 83.5%; (second compound 10 µM, first compound 1 µM) 86.7%; (second compound 10 µM, first compound 3.16 µM) 42%; (second compound 10 µM, first compound 10 µM) 25.4%. Moreover, the viability, T/C is, setting by setting: (second compound 31.6 µM, first compound 0.0316 µM) 81.1%; (second compound 31.6 µM, first compound 0.1 µM) 78.1%; (second compound 31.6 µM, first compound 0.316 µM) 77.7%; (second compound 31.6 µM, first compound 1 µM) 54.7%; (second compound 31.6 µM, first compound 3.16 µM) 39.3%; (second compound 31.6 µM, first compound 10 µM) 19.9%. For the same compound, the viability, T/C is 74.5% (second compound 100 µM, first compound 0.0316 µM); 60.5% (second compound 100 µM, first compound 0.1 µM); 56.1% (second compound 100 µM, first compound 0.316 µM); 41.2% (second compound 100 µM, first compound 1 µM); 24.4% (second compound 100 µM, first compound 3.16 µM); 20.2% (second compound 100 µM, first compound 10 µM).
With `Cn1ncnc1[C@H]1c2n[nH]c(=O)c3cc(F)cc(c23)N[C@@H]1c1ccc(F)cc1`, the outcome (compound 0.00949 µM) was inactive. Moreover, the viability, T/C (compound 0.00949 µM) is 96.5% and 101%; the viability, T/C (compound 0.03 µM) is 105% (2×) and 98.6%; the viability, T/C (compound 0.0949 µM) is 102% (2×) and 96.3%; the viability, T/C (compound 0.3 µM) was 102% and 95.5% and 98.4%; the viability, T/C (compound 0.949 µM) was 101% and 97.7% and 91.2%; the viability, T/C (compound 3 µM) was 88.4% and 86% and 72.1%. For the same compound, the IC50 (curve of compound) is more than 3 µM.
Take `O=C(c1cc(Cc2n[nH]c(=O)c3ccccc23)ccc1F)N1CCN(C(=O)C2CC2)CC1` + Cn1nnc2c(C(N)=O)ncn2c1=O: the IC50 is more than 30 µM under setting [1]; more than 30 µM under setting [2]; more than 30 µM under setting [3]; more than 30 µM under setting [4]; 3.4 µM under setting [5]. Also, the viability, T/C reads like this: (second compound 1 µM, first compound 0.0949 µM) 94.4%; (second compound 1 µM, first compound 0.3 µM) 83.3%; (second compound 1 µM, first compound 0.949 µM) 92.6%; (second compound 1 µM, first compound 3 µM) 82.5%; (second compound 1 µM, first compound 9.49 µM) 95.6%; (second compound 1 µM, first compound 30 µM) 79.2%. Also, the viability, T/C is, setting by setting: (second compound 3.16 µM, first compound 0.0949 µM) 97.6%; (second compound 3.16 µM, first compound 0.3 µM) 94.2%; (second compound 3.16 µM, first compound 0.949 µM) 115%; (second compound 3.16 µM, first compound 3 µM) 95.6%; (second compound 3.16 µM, first compound 30 µM) 76%; (second compound 10 µM, first compound 0.0949 µM) 85.8%. In addition, the viability, T/C (second compound 10 µM, first compound 0.3 µM) is 82.4%; the viability, T/C (second compound 10 µM, first compound 0.949 µM) is 82.8%; the viability, T/C (second compound 10 µM, first compound 3 µM) was 78.1%; the viability, T/C (second compound 10 µM, first compound 9.49 µM) is 76.7%; the viability, T/C (second compound 10 µM, first compound 30 µM) is 75.5%; the viability, T/C (second compound 31.6 µM, first compound 0.0949 µM) is 78.8%. For the same compound, the viability, T/C (second compound 31.6 µM, first compound 0.3 µM) was 70.5%; the viability, T/C (second compound 31.6 µM, first compound 0.949 µM) is 81.9%; the viability, T/C (second compound 31.6 µM, first compound 3 µM) was 72.3%; the viability, T/C (second compound 31.6 µM, first compound 9.49 µM) is 72.4%; the viability, T/C (second compound 31.6 µM, first compound 30 µM) was 58.6%; the viability, T/C (second compound 100 µM, first compound 0.0949 µM) is 68.7%. The viability, T/C (second compound 100 µM, first compound 0.3 µM) was 61.1%; the viability, T/C (second compound 100 µM, first compound 0.949 µM) was 51%; the viability, T/C (second compound 100 µM, first compound 3 µM) was 54.3%; the viability, T/C (second compound 100 µM, first compound 9.49 µM) is 44.3%; the viability, T/C (second compound 100 µM, first compound 30 µM) is 49.1%. Also, the outcome (second compound 3.16 µM, first compound 9.49 µM) was inactive.
Regarding `COc1ccc([C@@H](O)c2cc(-c3ncnc4cc(N5CCOCC5)ccc34)c(F)cc2Cl)nn1`, the viability, T/C by setting is: (compound 0.0316 µM) 108% and 103% (2×); (compound 0.1 µM) 95.8% and 109% and 111%; (compound 0.316 µM) 103% and 102% and 94.3%; (compound 1 µM) 90.4%; (compound 3.16 µM) 77.3% and 89.6% and 84.7%; (compound 10 µM) 49.6% and 58.1% and 50.4%. Further, under “compound 1 µM”, the result was inactive. In addition, the IC50 (curve of compound) is 9.89 µM and > 10 µM.
